Assay results taken from patent publication US6576620B2, “Method of identifying partial adenosine A1 receptor agonists” (CV Therapeutics, Inc., priority 1999, dated 2003).
“And” between values parts separate entries of the source, which are not always exact repeats. Identical values can stand only once. Like-named read-outs stand apart in the source and are kept apart here. Each block holds one compound with its values, some of them ahead of it.

What was measured:
Adenosine A1 receptor [1] = experiment: A1-agonist stimulated [35S]GTPγS binding to G proteins; assay type: biochemical; conditions: for GTPγS: normalized to the full agonist CPA; for GTPγS (% of CPA): Table 5
Description: At the end of the incubation, each suspension was filtered and the retained radioactivity determined as described above.

Adenosine A1 receptor [2] = target: T1, Adenosine A1 receptor (Cavia porcellus, UniProt P47745); experiment: Affinity binding (Ki) of Tables 4 and 5
T1 construct: from tissue; host or cells: guinea pig forebrain membranes
T1 sequence (P47745 1-326): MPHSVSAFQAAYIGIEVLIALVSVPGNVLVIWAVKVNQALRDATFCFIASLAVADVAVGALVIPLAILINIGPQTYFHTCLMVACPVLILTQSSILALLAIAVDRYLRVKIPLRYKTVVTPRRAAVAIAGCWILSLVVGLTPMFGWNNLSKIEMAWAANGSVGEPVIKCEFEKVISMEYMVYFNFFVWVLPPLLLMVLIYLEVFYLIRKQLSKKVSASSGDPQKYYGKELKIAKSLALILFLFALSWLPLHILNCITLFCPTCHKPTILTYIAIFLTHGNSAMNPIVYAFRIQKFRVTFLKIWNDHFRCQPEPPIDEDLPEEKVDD
Description: The binding affinity of a compound is evaluated in a competitive binding assay.

[3] = system: guinea pig isolated heart; experiment: A-V nodal conduction time / S-H interval, isolated perfused heart; conditions: for EC50: Cavia porcellus; for S-H interval Efficacy: Table 5, 2759 = CVT-2759
Description: This method evaluates the potencies of compounds to cause coronary vasodilation (A2A AdoR response) and to prolong A-V nodal conduction time (A1 AdoR response).
Rats and guinea pigs, of either sex weighing from 230 to 260 grams and 300 to 350 grams, respectively, were used in this study. Animals were anesthetized by peritoneal injection of a cocktail containing ketamine and xylazine (ketamine 100 mg, xylazine 20 mg/ml). The chest was opened and the heart quickly removed. The heart was briefly rinse in ice-cold Krebs-Henseleit solution (see below), and the aorta cannulated. The heart was then perfused at a flow rate of 10 ml/min with modified Krebs-Henseleit (K-H) solution containing NaCl 117.9, KCl 4.5, CaCl2 2.5, MgSO4 1.18, KH2PO4 1.18, pyruvate 2.0 mmol. The K-H solution (pH 7.4) was gassed continuously with 95% O2 and 5% CO2 and warmed to 35±0.50° C. The heart was electrically paced at a fixed cycle length of […] (250 beats/min) using a bipolar electrode place on the left atrium. The electrical stimuli were generated by a Grass stimulator (Model S48, W. Warwick, R.I.) and delivered through a Stimuli Isolation Unit (Model SIU5, Astro-Med, Inc., NY) as square-wave pulses of 3-msec in duration and amplitude of at least twice the threshold intensity.
A1 adenosine receptor-mediated depression of A-V nodal conduction time (negative dromotropic effect) was measured. Atrial and ventricular surface electrograms in rats and His bundle electrogram in guinea pigs, were recorded during constant atrial pacing.
The effects of compounds on coronary conductance (A2A effect) and atrioventricular conduction time or stimulus-to-His-bundle (S-H) interval (A1 effect) was then determined. Hearts were instrumented for continuous recording of coronary perfusion pressure (A2A response) and atrioventricular (A-V) conduction time or S-H interval (A1 response). In each experiment, concentration-response relationship of compounds to increase coronary conductance and to prolong A-V conduction time or S-H interval was determined. After control measurements of CPP and A-V conduction time or S-H interval were made, progressive higher concentrations of the compound studied was administered until maximal coronary vasodilation and A-V nodal conduction time or S-H interval prolongation were achieved.
Guinea pigs (Hartley) of either sex weighing 300-350 g were anaesthetized with methoxyflurane and killed by decapitation. The chest was cut open and the heart was removed quickly and rinsed in ice-cold modified Krebs-Henseleit (K-H) solution. The contents of the modified K-H solution were (in mM): NaCl 117.9, KCl 4.8, CaCl2 2.5, MgSO2 1.18, KH2PO4 1.2, Na2 EDTA 0.5, ascorbic acid 0.14, dextrose 5.5, pyruvic acid (sodium salt) 2.0, and NaHCO3 25. The K-H solution was continuously gassed with 95% oxygen and 5% CO2, and the pH was adjusted to a value of 7.4. To perfuse the heart by the Langendorff method, the transected aorta was slid onto a glass cannula and secured by a ligature. Retrograde perfusion of the aorta was initiated immediately at a constant flow of 10 ml min-′ with modified K-H solution warmed to 36.0±0.5° C. A side port in the cannula was used to connect the perfusion line to a Gould pressure transducer for measurement of coronary perfusion pressure. Coronary perfusion pressure was continuously recorded on a strip chart (Gould RS3400, Cleveland, Ohio) throughout each experiment. Coronary conductance (in ml min^−1 mmHg^−1) was calculated as the ratio of coronary flow (10 ml min^−1) to perfusion pressure (mm Hg). To facilitate the exit of fluid from the left ventricle, the leaflets of the mitral valve were trimmed with fine spring-handled scissors. When appropriate, hearts were paced at a constant rate using external electrodes. […]

[4] = Table 1, compounds of Example 2
[5] = Table 4, A-V nodal conduction time, read-out: EC50 A-V NCT
[6] = Table 5, S-H interval, read-out: EC50

Compound: CNC(=S)OC[C@H]1O[C@@H](n2cnc3c(N[C@@H]4CCOC4)ncnc32)[C@H](O)[C@@H]1O [Compound 45 of Example 2, 2-{6-[((3R)oxolan-3-yl)amino]purin-9-yl}(4S,2R,3R,5R)-5-{[(methylamino)thioxomethoxy]methyl}oxolane-3,4-diol]
- GTPγS (Adenosine A1 receptor [1]; [4]): 77%
- GTPγS (% of CPA) (Adenosine A1 receptor [1]): 77 % of CPA
- Ki (Adenosine A1 receptor [2]; Table 4, read-out: Ki low): 400 nM
- Ki (Adenosine A1 receptor [2]; Table 5, read-out: Ki): 346 nM
- EC50 [3, 5]: 600 nM
- EC50 [3, 6]: 570 nM
- S-H interval Efficacy [3]: Partial

Compound: CC(C)NC(=S)OC[C@H]1O[C@@H](n2cnc3c(N[C@@H]4CCOC4)ncnc32)[C@H](O)[C@@H]1O [Compound 47 of Example 2, 2-{6-[((3R)oxolan-3-yl)amino]purin-9-yl}(4S,2R,3R,5R)-5-({[(methylethyl)amino]thioxomethoxy}methyl)oxolane-3,4-diol]
- Ki (Adenosine A1 receptor [2]; Table 5, read-out: Ki): 1370 nM

Compound: CCCn1c(=O)c2[nH]c(C3CCCC3)nc2n(CCC)c1=O [CPX, 8-cyclopentyl-1,3-dipropylxanthine, reference compound]
- S-H interval ([3]; 50 nM CPX in continued presence of 10 μM Compound 6 of Example 2 (58±2 msec before CPX)): 50 ± 2 ms

Compound: O[C@@H]1[C@H](O)[C@@H](CSc2ccccc2F)O[C@H]1n1cnc2c(N[C@@H]3CCOC3)ncnc21 [Compound 21 of Example 4, 2-{6-[((3R)oxolan-3-yl)amino]purin-9-yl}(4S,5S,2R,3R)-5-[(2-fluorophenylthio)methyl]oxolane-3,4-diol]
- GTPγS (% of CPA) (Adenosine A1 receptor [1]): 72 % of CPA
- Ki (Adenosine A1 receptor [2]; Table 4, read-out: Ki low): 600 nM
- Ki (Adenosine A1 receptor [2]; Table 5, read-out: Ki): 372 nM and 221 nM
- EC50 [3, 5]: 1200 nM
- EC50 [3, 6]: 1260 nM
- S-H interval Efficacy [3]: Partial (>2759)

Compound: O[C@@H]1[C@H](O)[C@@H](CSc2c(Cl)cccc2Cl)O[C@H]1n1cnc2c(N[C@@H]3CCOC3)ncnc21 [Compound 19 of Example 4, 2-{6-[((3R)oxolan-3-yl)amino]purin-9-yl}(4S,5S,2R,3R)-5-[(2,6-dichlorophenylthio)methyl]oxolane-3,4-diol]
- GTPγS (% of CPA) (Adenosine A1 receptor [1]): 89 % of CPA
- Ki (Adenosine A1 receptor [2]; Table 5, read-out: Ki): 1340 nM
- S-H interval Efficacy [3]: Full (>2759)

Compound: CCNC(=S)OC[C@H]1O[C@@H](n2cnc3c(N[C@@H]4CCOC4)ncnc32)[C@H](O)[C@@H]1O [Compound 46 of Example 2, 2-{6-[((3R)oxolan-3-yl)amino]purin-9-yl}(4S,2R,3R,5R)-5-{[(ethylamino)thioxomethoxy]methyl}oxolane-3,4-diol]
- GTPγS (Adenosine A1 receptor [1]; [4]): 77%
- GTPγS (% of CPA) (Adenosine A1 receptor [1]): 77 % of CPA
- Ki (Adenosine A1 receptor [2]; Table 5, read-out: Ki): 1110 nM
- S-H interval Efficacy [3]: Full (Weak)

Compound: C=CCNC(=O)OC[C@H]1O[C@@H](n2cnc3c(N[C@@H]4CCOC4)ncnc32)[C@H](O)[C@@H]1O [Compound 41 of Example 2, [(5-{6-[((3R)oxolan-3-yl)amino]purin-9-yl}(3S,2R,4R,5R)-3,4-dihydroxyoxolan-2-yl)methoxy]-N-prop-2-enylcarboxamide]
- GTPγS (Adenosine A1 receptor [1]; [4]): 48%

Compound: O=C(N[C@H]1CCC[C@@H]1OCc1ccccc1)OC[C@H]1O[C@@H](n2cnc3c(N[C@@H]4CCOC4)ncnc32)[C@H](O)[C@@H]1O [Compound 38 of Example 2, {(5-{6[((3R)oxolan-3-yl)amino]purin-9-yl}(3S,2R,4R,5R)-3,4-dihydroxyoxolan-2-yl)methoxy]-N-[(1 S,2S)-2-(phenylmethoxy)cyclopentyl]carboxamide]
- GTPγS (Adenosine A1 receptor [1]; [4]): 1%

Compound: CCOC(=O)[C@H]1C2CCC(C2)[C@H]1NC(=O)OC[C@H]1O[C@@H](n2cnc3c(N[C@@H]4CCOC4)ncnc32)[C@H](O)[C@@H]1O (some centres unmarked) [Compound 36 of Example 2]
- GTPγS (Adenosine A1 receptor [1]; [4]): 41%

Compound: CCNc1nc2c(N[C@@H]3CCOC3)ncnc2n1[C@@H]1O[C@H](CO)[C@@H](O)[C@H]1O [Compound 5 of Example 3, 2-{6-[((3R)oxolan-3-yl)amino]-8-(ethylamino)purin-9-yl}(4S,2R,3R,5R)-5-(hydroxymethyl)oxolane-3,4-diol]
- GTPγS (Adenosine A1 receptor [1]; Table 2, compounds of Example 3): 89%

Compound: 2-{6-[((3R)oxolan-3-yl)amino]purin-9-yl}(4S,2R,3R,5R)-5-{[cyclopentyloxythioxomethyl)amino]methyl}oxolane-3,4-diol [Compound 72 of Example 2]
- GTPγS (Adenosine A1 receptor [1]; [4]): 93%

Continued, in another order:

- GTPγS (% of CPA) (Adenosine A1 receptor [1]): 84 % of CPA
- Ki (Adenosine A1 receptor [2]; Table 4, read-out: Ki low): 500 nM
- Ki (Adenosine A1 receptor [2]; Table 5, read-out: Ki): 1110 nM
Compound: CNC(=S)OC[C@H]1O[C@@H](n2cnc3c(N[C@@H]4CCOC4)nc(Cl)nc32)[C@H](O)[C@@H]1O [Compound 81 of Example 2]
- EC50 [3, 5]: 600 nM
- EC50 [3, 6]: 530 nM
- S-H interval Efficacy [3]: Partial

- Ki (Adenosine A1 receptor [2]; Table 4, read-out: Ki low): 2600 nM
Compound: CNC(=O)OC[C@H]1O[C@@H](n2cnc3c(N[C@@H]4CCOC4)ncnc32)[C@H](O)[C@@H]1O [compound 6]
- EC50 [3, 5]: 3100 nM

- GTPγS (Adenosine A1 receptor [1]; [4]): 67%
Compound: O[C@@H]1[C@H](O)[C@@H](COC(=S)N[C@@H]2CCC[C@H]2OCc2ccccc2)O[C@H]1n1cnc2c(N[C@@H]3CCOC3)ncnc21 [Compound 57 of Example 2, 2-{6-[((3R)oxolan-3-yl)amino]purin-9-yl}(4S,2R,3R,5R)-5-[(([(1R,2R)-2-(phenylmethoxy)cyclopentyl]amino}thioxomethoxy)methyl]oxolane-3,4-diol]

- GTPγS (Adenosine A1 receptor [1]; [4]): 76%
Compound: O=C(O)CNC(=O)OC[C@H]1O[C@@H](n2cnc3c(N[C@@H]4CCOC4)ncnc32)[C@H](O)[C@@H]1O [Compound 68 of Example 2, 2-{[(5-{6-[((3R)oxolan-3-yl)amino]purin-9-yl}(3S,2R,4R,5R)-3,4 dihydroxyoxolan-2-yl)methoxy]carbonylamino}acetic acid]

- GTPγS (Adenosine A1 receptor [1]; [4]): 77%
Compound: C=CCNC(=S)OC[C@H]1O[C@@H](n2cnc3c(N[C@@H]4CCOC4)ncnc32)[C@H](O)[C@@H]1O [Compound 60 of Example 2, 2-{6-[((3R)oxolan-3-yl)amino]purin-9-yl}(4S,2R,3R,5R)-5-{[(prop-2-enylamino)thioxomethoxy]methyl}oxolane-3,4-diol]

- Ki (Adenosine A1 receptor [2]; Table 5, read-out: Ki): 9630 nM
Compound: CCCCNC(=O)OCC1OC(n2cnc3c(N[C@@H]4CCOC4)ncnc32)C(O)C1O (some centres unmarked) [compound 27]

- GTPγS (Adenosine A1 receptor [1]; [4]): 100%
Compound: O[C@@H]1[C@H](O)[C@@H](COC(=S)N[C@@H]2CCC[C@H]2O)O[C@H]1n1cnc2c(N[C@@H]3CCOC3)ncnc21 [Compound 63 of Example 2, 2-{6-[((3R)oxolan-3-yl)amino]purin-9-yl}(4S,2R,3R,5R)-5-({[((1R,2R)-2-hydroxycyclopentyl)amino]thioxomethoxy}methyl)oxolane-3,4-diol]

- GTPγS (Adenosine A1 receptor [1]; [4]): 85%
Compound: CN(C)C(=S)OC[C@H]1O[C@@H](n2cnc3c(N[C@@H]4CCOC4)ncnc32)[C@H](O)[C@@H]1O [Compound 53 of Example 2, 2-{6-[((3R)oxolan-3-yl)amino]purin-9-yl}(4S,2R,3R,5R)-5-{[(dimethylamino)thioxomethoxy]methyl}oxolane-3,4-diol]
